Test results: US6689790B2, “Substituted triazolopyridine compounds” (Hoffmann-La Roche Inc., priority 2001, dated 2004)
pKi: −log10 of the molar value.

Each molecule was assayed against T1, human adenosine A2A receptor (Homo sapiens, UniProt P29274) (assay: [3H]-SCH-58261 binding assay, human adenosine A2A receptor (CHO cell membranes, SPA)). Conditions: [3H]-SCH-58261 displacement; list of examples 10-108; read-out: hA2a Ki.
T1 construct: expressed in transfected cells; host or cells: CHO cells, semliki forest virus expression system; washed membranes
Experimental: Human Adenosine A2A Receptor
The human adenosine A2A receptor was recombinantly expressed in chinese hamster ovary (CHO) cells using the semliki forest virus expression system. Cells were harvested, washed twice by centrifugation, homogenized and again washed by centrifugation. The final washed membrane pellet was suspended in a Tris (50 mM) buffer containing 120 mM NaCl, 5 mM KCl, 2 mM CaCl2 and 10 mM MgCl2 (pH 7.4) (buffer A). […] Compounds were tested at 10 concentrations from 10 μM-0.3 nM. All assays were conducted in duplicate and repeated at least two times. Assay plates were incubated for 1 hour at room temperature before centrifugation and then bound ligand determined using a Packard Topcount scintillation counter. IC50 values were calculated using a non-linear curve fitting program and Ki values calculated using the Cheng-Prussoff equation.

T1 sequence (P29274 whole entry): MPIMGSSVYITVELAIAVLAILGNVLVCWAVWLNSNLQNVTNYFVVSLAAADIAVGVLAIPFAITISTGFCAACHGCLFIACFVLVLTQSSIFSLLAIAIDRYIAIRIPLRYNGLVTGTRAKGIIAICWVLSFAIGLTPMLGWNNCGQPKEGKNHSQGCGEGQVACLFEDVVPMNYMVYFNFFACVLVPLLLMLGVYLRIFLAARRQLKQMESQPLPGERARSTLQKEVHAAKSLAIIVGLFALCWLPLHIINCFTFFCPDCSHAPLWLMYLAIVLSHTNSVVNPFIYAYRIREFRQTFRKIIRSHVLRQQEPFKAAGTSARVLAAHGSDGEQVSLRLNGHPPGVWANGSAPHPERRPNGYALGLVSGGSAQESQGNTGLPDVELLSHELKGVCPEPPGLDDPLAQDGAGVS

| Compound | pKi |
| --- | --- |
| COCC1CCCN1C(=O)c1cc(N)c2nc(-c3ccccc3)nn2c1 (stereo in doubt) [Example 75, (8-Amino-2-phenyl-[1,2,4]triazolo[1,5-a]pyridin-6-yl)-((S)-2-methoxymethyl-pyrrolidin-1-yl)-methanone] | 6.38 |
| COC[C@@H]1CCCN1C(=O)c1cc(N)c2nc(-c3ccc(C)o3)nn2c1 (stereo in doubt) [Example 86, [8-Amino-2-(5-methyl-furan-2-yl)-[1,2,4]triazolo[1,5-a]pyridin-6-yl]-(2-methoxymethyl-pyrrolidin-1-yl)-methanone] | 6.64 |
| COCC1CCCN1C(=O)c1cc(N)c2nc(-c3ccc(C)s3)nn2c1 (stereo in doubt) [Example 97, [8-Amino-2-(5-methyl-thiophen-2-yl)-[1,2,4]triazolo[1,5-a]pyridin-6-yl]-((S)2-methoxymethyl-pyrrolidin-1-yl)-methanone] | 6.37 |
| Nc1cc(C(=O)N2CCCCC2)cn2nc(-c3ccccn3)nc12 [Example 27, (8-Amino-2-pyridin-2-yl-[1,2,4]triazolo[1,5-a]pyridin-6-yl)-piperidin-1-yl-methanone] | 6.26 |
| CC1CCCN1C(=O)c1cc(N)c2nc(-c3ccccn3)nn2c1 (stereo not shown) [Example 28, (8-Amino-2-pyridin-2-yl-[1,2,4]triazolo[1,5-a]pyridin-6-yl)-(2-methyl-pyrrolidin-1-yl)-methanone] | 6.43 |
| CCN(CC)C(=O)C1CCCN(C(=O)c2cc(N)c3nc(-c4ccccn4)nn3c2)C1 (stereo not shown) [Example 29, 1-(8-Amino-2-pyridin-2-yl-[1,2,4]triazolo[1,5-a]pyridine-6-carbonyl)-piperidine-3-carboxylic acid diethylamide] | 6.23 |
| CC1CCCN(C(=O)c2cc(N)c3nc(-c4ccccn4)nn3c2)C1 (stereo not shown) [Example 30, (8-Amino-2-pyridin-2-yl-[1,2,4]triazolo[1,5-a]pyridin-6-yl)-(3-methyl-piperidin-1-yl)-methanone] | 6.24 |
| CCCN(C)C(=O)c1cc(N)c2nc(-c3ccccn3)nn2c1 [Example 31, 8-Amino-2-pyridin-2-yl-[1,2,4]triazolo[1,5-a]pyridine-6-carboxylic acid methyl-propyl-amide] | 6.10 |
| CN(CCc1ccccc1)C(=O)c1cc(N)c2nc(-c3ccccn3)nn2c1 [Example 32, 8-Amino-2-pyridin-2-yl-[1,2,4]triazolo[1,5-a]pyridine-6-carboxylic acid methyl-phenethyl-amide] | 6.41 |
| CCN(CC)C(=O)c1cc(N)c2nc(-c3ccco3)nn2c1 [Example 33, 8-Amino-2-furan-2-yl-[1,2,4]triazolo[1,5-a]pyridine-6-carboxylic acid diethylamide] | 6.37 |
| CC(C)N(Cc1ccccc1)C(=O)c1cc(N)c2nc(-c3ccco3)nn2c1 [Example 36, 8-Amino-2-furan-2-yl-[1,2,4]triazolo[1,5-a]pyridine-6-carboxylic acid benzyl-isopropyl-amide] | 6.64 |
| CCCN(CCC)C(=O)c1cc(N)c2nc(-c3ccco3)nn2c1 [Example 38, 8-Amino-2-furan-2-yl-[1,2,4]triazolo[1,5-a]pyridine-6-carboxylic acid dipropylamide] | 6.43 |
| CCN(CC)C(=O)C1CCCN(C(=O)c2cc(N)c3nc(-c4ccco4)nn3c2)C1 (stereo not shown) [Example 40, 1-(8-Amino-2-furan-2-yl-[1,2,4]triazolo[1,5-a]pyridine-6-carbonyl)-piperidine-3-carboxylic acid diethylamide] | 6.43 |
| CN(C)C(=O)CN(C)C(=O)c1cc(N)c2nc(-c3ccco3)nn2c1 [Example 44, 8-Amino-2-furan-2-yl-[1,2,4]triazolo[1,5-a]pyridine-6-carboxylic acid dimethylcarbamoyl-methyl-methyl-amide] | 6.47 |
| CCN(CCOC)C(=O)c1cc(N)c2nc(-c3ccco3)nn2c1 [Example 45, 8-Amino-2-furan-2-yl-[1,2,4]triazolo[1,5-a]pyridine-6-carboxylic acid ethyl-(2-methoxy-ethyl)-amide] | 6.30 |
| CCCN(C)C(=O)c1cc(N)c2nc(-c3ccco3)nn2c1 [Example 47, 8-Amino-2-furan-2-yl-[1,2,4]triazolo[1,5-a]pyridine-6-carboxylic acid methyl-propyl-amide] | 6.62 |
| Nc1cc(C(=O)N2CCSCC2)cn2nc(-c3ccco3)nc12 [Example 49, (8-Amino-2-furan-2-yl-[1,2,4]triazolo[1,5-a]pyridin-6-yl)-thiomorpholin-4-yl-methanone] | 6.20 |
| CN(CCc1ccccc1)C(=O)c1cc(N)c2nc(-c3ccco3)nn2c1 [Example 50, 8-Amino-2-furan-2-yl-[1,2,4]triazolo[1,5-a]pyridine-6-carboxylic acid methyl-phenethyl-amide] | 6.60 |
| Nc1cc(C(=O)N2CCCCC2)cn2nc(-c3cccs3)nc12 [Example 52, (8-Amino-2-thiophen-2-yl-[1,2,4]triazolo[1,5-a]pyridin-6-yl)-piperidin-1-yl-methanone] | 6.45 |

| Compound | pKi |
| --- | --- |
| CC1CCCN1C(=O)c1cc(N)c2nc(-c3cccs3)nn2c1 (stereo not shown) [Example 53, (8-Amino-2-thiophen-2-yl-[1,2,4]triazolo[1,5-a]pyridin-6-yl)-(2-methyl-pyrrolidin-1-yl)-methanone] | 6.63 |
| CCCN(CCC)C(=O)c1cc(N)c2nc(-c3cccs3)nn2c1 [Example 54, 8-Amino-2-thiophen-2-yl-[1,2,4]triazolo[1,5-a]pyridine-6-carboxylic acid dipropylamide] | 6.26 |
| CC1CCCCN1C(=O)c1cc(N)c2nc(-c3cccs3)nn2c1 (stereo not shown) [Example 55, (8-Amino-2-thiophen-2-yl-[1,2,4]triazolo[1,5-a]pyridin-6-yl)-(2-methyl-piperidin-1-yl)-methanone] | 6.59 |
| CCN(CC)C(=O)C1CCCN(C(=O)c2cc(N)c3nc(-c4cccs4)nn3c2)C1 (stereo not shown) [Example 56, 1-(8-Amino-2-thiophen-2-yl-[1,2,4]triazolo[1,5-a]pyridine-6-carbonyl)-piperidine-3-carboxylic acid diethylamide] | 6.16 |
| COC[C@H]1CCCN1C(=O)c1cc(N)c2nc(-c3cccs3)nn2c1 [Example 57, (8-Amino-2-thiophen-2-yl-[1,2,4]triazolo[1,5-a]pyridin-6-yl)-(2-R-methoxymethyl-pyrrolidin-1-yl)-methanone] | 6.62 |
| COC[C@@H]1CCCN1C(=O)c1cc(N)c2nc(-c3cccs3)nn2c1 [Example 58, (8-Amino-2-thiophen-2-yl-[1,2,4]triazolo[1,5-a]pyridin-6-yl)-(2-S-methoxymethyl-pyrrolidin-1-yl)-methanone] | 6.05 |
| NC(=O)[C@H]1CCCN1C(=O)c1cc(N)c2nc(-c3cccs3)nn2c1 [Example 59, 1-(8-Amino-2-thiophen-2-yl-[1,2,4]triazolo[1,5-a]pyridine-6-carbonyl)-pyrrolidine-2-R-carboxylic acid amide] | 6.67 |
| CN(C)C(=O)CN(C)C(=O)c1cc(N)c2nc(-c3cccs3)nn2c1 [Example 60, 8-Amino-2-thiophen-2-yl-[1,2,4]triazolo[1,5-a]pyridine-6-carboxylic acid dimethylcarbamoyl-methyl-methyl-amide] | 6.26 |
| CCN(CCOC)C(=O)c1cc(N)c2nc(-c3cccs3)nn2c1 [Example 61, 8-Amino-2-thiophen-2-yl-[1,2,4]triazolo[1,5-a]pyridine-6-carboxylic acid ethyl-(2-methoxy-ethyl)-amide] | 6.04 |
| CC1CCCN(C(=O)c2cc(N)c3nc(-c4cccs4)nn3c2)C1 (stereo not shown) [Example 62, (8-Amino-2-thiophen-2-yl-[1,2,4]triazolo[1,5-a]pyridin-6-yl)-(3-methyl-piperidin-1-yl)-methanone] | 6.15 |
| CCCN(C)C(=O)c1cc(N)c2nc(-c3cccs3)nn2c1 [Example 63, 8-Amino-2-thiophen-2-yl-[1,2,4]triazolo[1,5-a]pyridine-6-carboxylic acid methyl-propyl-amide] | 6.36 |
| CCN(CCc1ccccn1)C(=O)c1cc(N)c2nc(-c3cccs3)nn2c1 [Example 65, 8-Amino-2-thiophen-2-yl-[1,2,4]triazolo[1,5-a]pyridine-6-carboxylic acid ethyl-(2-pyridin-2-yl-ethyl)-amide] | 6.14 |
| Nc1cc(C(=O)N2CCSCC2)cn2nc(-c3cccs3)nc12 [Example 66, (8-Amino-2-thiophen-2-yl-[1,2,4]triazolo[1,5-a]pyridin-6-yl)-thiomorpholin-4-yl-methanone] | 6.01 |
| CN(CCc1ccccc1)C(=O)c1cc(N)c2nc(-c3cccs3)nn2c1 [Example 67, 8-Amino-2-thiophen-2-yl-[1,2,4]triazolo[1,5-a]pyridine-6-carboxylic acid methyl-phenethyl-amide] | 6.40 |
| Nc1cc(C(=O)N2CCCC2)cn2nc(-c3ccccc3)nc12 [Example 68, (8-Amino-2-phenyl-[1,2,4]triazolo[1,5-a]pyridin-6-yl)-pyrrolidin-1-yl-methanone] | 6.61 |
| Nc1cc(C(=O)N2CCCCC2)cn2nc(-c3ccccc3)nc12 [Example 69, (8-Amino-2-phenyl-[1,2,4]triazolo[1,5-a]pyridin-6-yl)-piperidin-1-yl-methanone] | 6.26 |
| CC1CCCN1C(=O)c1cc(N)c2nc(-c3ccccc3)nn2c1 (stereo not shown) [Example 70, (8-Amino-2-phenyl-[1,2,4]triazolo[1,5-a]pyridin-6-yl)-(2-methyl-pyrrolidin-1-yl)-methanone] | 6.84 |
| CCCCN(C)C(=O)c1cc(N)c2nc(-c3ccccc3)nn2c1 [Example 71, 8-Amino-2-phenyl-[1,2,4]triazolo[1,5-a]pyridine-6-carboxylic acid methyl-butyl-amide] | 6.32 |
